Results as given in patent US20100113406A1, “USE OF GLUCOCORTICOIDS FOR TREATMENT OF CONGESTIVE HEART FAILURE” (priority 2007, published 2010).
“Also recorded” adds a separate entry of the source.

Columns and labels:
[1] = Pharmacokinetic study in normal Wistar rats (IPC vs IV infusion, corticosterone levels by HPLC); format: in vivo, Wistar rat; settings: local (intrapericardial) administration versus systemic (IV) administration of the same amount of drug; 4 weeks infusion; FIG. 2
Protocol: (§1) Normal Wistar rats were used for this Example. Animals were housed at the animal facilities of the University of Maastricht with a 12-hour light/dark cycle and had free access to standard rat chow and tap-water. Experiments were performed according to institutional guidelines and conformed to the Guide for the Care and Use of Laboratory Animals published by the US National Institutes of Health (NIH Publication No. 85-23, revised 1996).
The rats underwent a surgical procedure to install pericardial and intravenous catheters and minipumps. Construction of the pericardial catheters and the procedure to install the catheter into the pericardial space were conducted as described by Hermans, which has been discussed above.
Briefly, the pericardial catheters consisted of silicone tubing (internal diameter: 0.51 mm; external diameter 0.94 mm, Degania Silicone, Degania Bet, Israel), which, by assembling its endings with a polyolefin shrinking sleeve (Farnell Compounds, Maarssen, the Netherlands), was shaped as a loop (length appr. 2 cm, width appr. 1 cm). Silicone glue was applied in the middle of the loop, to create two separate chambers (one used for fluid injection, the second closed, i.e. connected to a closed ending). The fluid infusion chamber was provided with holes by use of a 25-gauge perforator. […]

[2] = tested on: spontaneous hypertensive heart failure (SHHF) rats; test: Left ventricular pressures, contractility, relaxation, arterial pressure and heart rate in SHHF rat model of CHF; format: in vivo
Protocol: as §1, with “Forty to forty-two week old male lean spontaneous hypertensive heart failure (SHHF)” for “Normal Wistar”, “rats (originally obtained from Charles River, Boston, USA)” for “rats”, “used.” for “used for this Example.”
The rats underwent a surgical procedure to install pericardial and intravenous catheters and minipumps according to the procedure of Example 1.
Animals were randomly assigned to treatment groups (n=9 per group). Total treatment time was 4 weeks for all animals. The groups were as follows: • (1) corticosterone high dose IPC (60 micrograms/day) • (2) corticosterone low dose IPC (6 micrograms/day) • (3) corticosterone high dose IV (60 micrograms/day) • (4) corticosterone low dose IV (6 micrograms/day) • (5) vehicle
Where IPC—intrapericardial dosing, and IV=intravenous dosing.
During treatment, Group 5 (vehicle) rats were continuously infused with vehicle (40% polyethylene glycol in water; 60 μl/day) via both catheters. Experimental groups obtained continuous infusions as follows: • Group (1)—a high dose (60 ug/day) of corticosterone hemisuccinate intrapericardially and vehicle intravenously; • Group (2)—a low dose (6 ug/day) of corticosterone hemisuccinate intrapericardially and vehicle intravenously; • Group (3)—a high dose (60 ug/day) of corticosterone hemisuccinate intravenously and vehicle intrapericardially; and • Group (4)—a low dose (6 ug/day) of corticosterone hemisuccinate intravenously and vehicle intrapericardially. • Corticosterone hemisuccinate was purchased from Sigma (St Louis, Mo.)
Left ventricular pressures, contractility and relaxation were evaluated at the end of the study as described in B J Janssen et al., “Effects of anesthetics on systemic hemodynamics in mice.” Am J Physiol Heart Circ Physiol 287:H1618-1624 (2004). For this purpose rats were anaesthetized with pentobarbital (50 mg/kg i.p., Sigma). A high-fidelity catheter tip micromanometer (Mikro-tip 1.4F; SPR-671, Millar Instruments, Houston, Tex., USA) was inserted into the left ventricular cavity through the right carotid artery. Before the tip was inserted into the left ventricle, mean arterial pressures and heart rates were briefly recorded in the carotid artery. Left ventricular pressure was measured and sampled at a rate of 2 kHz under an I.V. ramp infusion of dobutamine up to 5 ng/gBW/min (Sigma) using a microinjection pump (model 200 Series, KD Scientific, Boston, Mass., USA). Maximal positive (+dp/dt/p) and negative (−dp/dt/p) pressure development were determined. At the end of the experiment blood and organs were harvested, weighed and rapidly processed and frozen for future analyses.

[3] = tested on: spontaneous hypertensive heart failure (SHHF) rats; test: Left ventricular collagen by Picro Sirius Red staining in SHHF rats; format: in vivo, rat; settings: 6 or 60 micrograms/day IPC or IV, 4 weeks, FIG. 12
Protocol: as §1, with “Forty to forty-two week old male lean spontaneous hypertensive heart failure (SHHF)” for “Normal Wistar”, “rats (originally obtained from Charles River, Boston, USA)” for “rats”, “used.” for “used for this Example.”
(§2) Animals were randomly assigned to treatment groups (n=9 per group). Total treatment time was 4 weeks for all animals. […]
Collagen volume fraction of each section was determined using a computer image analyzing system (Leica Q-Win). Interstitial collagen density of heart sections was evaluated in the left ventricle (LV) subepicardial myocardium regions. Ten fields from each region (magnification ×20) were randomly selected for analyses and the area stained was calculated as percentage of the total area within a field.
Perivascular collagen was expressed as ratio of the area of the collagen surrounding the vessel divided to the area of the coronary arteries media in order to correct for differences in vessel size (magnification ×20 or ×40). We calculated an average value for interstitial and perivascular fibrosis or each animal. […]

[4] = tested on: spontaneous hypertensive heart failure (SHHF) rats; test: Transthoracic echocardiography in SHHF rats; format: in vivo, rat; settings: treatment end versus treatment start, FIG. 4
Protocol: as §1, with “Forty to forty-two week old male lean spontaneous hypertensive heart failure (SHHF)” for “Normal Wistar”, “rats (originally obtained from Charles River, Boston, USA)” for “rats”, “used.” for “used for this Example.”
as §2
At the start and end of the treatment, transthoracic echocardiography was performed under isoflurane anesthesia in part of the rats (5-7 per group) using the SONOS 5500 echocardiographic system equipped with a 15-MHz linear-array transducer (Philips Medical Systems Corp., Netherlands). […] The 2-dimensional parasternal long- and short-axis view of the left ventricle and the parasternal short axis M-mode tracings were recorded.
Measurements and calculations performed are the following: percent LV fractional shortening (FS) was calculated as follows: […], where LVIDd and LVIDs are end-diastolic and end-systolic left ventricle internal dimensions, respectively. […]

[5] = tested on: collagens I and III and BNP mRNA; test: Left ventricular gene expression levels of collagens I and III and BNP (real-time PCR) in SHHF rats; format: in vivo; settings: SHHF rat left ventricle, 4 weeks treatment; FIG. 13
Protocol: Left ventricular gene expression levels of collagens I and III and BNP were determined as follows. mRNA expression analyses were performed as follows:
Heart samples (i.e. basal side of the hearts) were shock frozen in liquid nitrogen for RNA. Total RNA from the LV was isolated using the Ultraspec II kit (Bioteckx), according to the instructions of the manufacturer. After integrity checking and determining RNA concentrations with the nanodrop procedure, the RNA concentrations were adjusted to 100 ng/μl For first strand cDNA synthesis, 100 ng heat denatured RNA and 200 pmol random hexamer primers (Pharmacia, Uppsala Sweden) were transferred to a Ready-To-Go first strand bead (Pharmacia, Uppsala Sweden) tube and the volume adjusted to 33 μl.
The reaction (1 hour at 37° C.) was stopped by heat inactivating (2 minutes at 94° C.) the transcriptase and samples were cooled to 4° C. For conducting the real-time PCR, […] of the cDNA templates (100× diluted) were added to SYBR green master mix (Eurogentec) and primers (15 μM final concentration each) yielding a total volume of […], following the instructions of the Eurogentec.
PCR-primers (Sigma Genosys) were selected based on published primers/cDNA sequences and had the following sequences (5′→3′): […]
yielding products with fragment lengths of 253, 147 and 86 base pairs for PGK 1 (phosphoglycerate kinase 1), BNP (brain natriuretic peptide) and collagens I and -III respectively.
Samples were denatured and incubated for 40 cycles at 60° C. (120 seconds; annealing and synthesis) and 95° C. (15 seconds), during which fluorescence was continuously monitored (Biorad thermocycler).
Based on the linear part of the curves, initial gene concentrations were derived by comparing signals with standard curves. Validity of the procedure was checked by constructing melting curves for every sample.
Calculated gene expression levels were standardized for the house keeping gene PGK1 and were normalized versus RNA obtained from untreated control animals. Data are therefore expressed as arbitrary units (means±SEM).

C[C@]12C[C@H](O)[C@H]3[C@@H](CCC4=CC(=O)CC[C@@]43C)[C@@H]1CC[C@@H]2C(=O)CO [corticosterone]
corticosterone concentration in rat heart tissue [1]: higher concentration | cardiac filling rate ([2]; 6 or 60 micrograms/day IPC or IV, 4 weeks): improved | left ventricular end diastolic pressure ([2]; 6 or 60 micrograms/day IPC or IV, 4 weeks, FIG. 8): improved; also recorded: positively affects | left ventricular contractility ([2]; 6 or 60 micrograms/day IPC or IV, 4 weeks, FIG. 10): improved; also recorded: positively affects | left ventricular relaxation ([2]; 6 or 60 micrograms/day IPC or IV, 4 weeks, FIG. 11): positively affects | heart rate ([2]; right carotid artery, 4 weeks treatment, FIG. 5): no differences between treatments; also recorded: not affecting | mean arterial pressure (MAP) / blood pressure ([2]; right carotid artery, 4 weeks treatment, FIG. 6): no differences between treatments; also recorded: not affecting | left ventricular epicardial collagen area [3]: improved; also recorded: positively affects | echocardiographic examinations (left ventricular dimensions or performance parameters) [4]: no differences between treatments | mRNA expression of B-type natriuretic peptide (BNP) [5]: reduces | mRNA expression of Type I collagen [5]: reduces | mRNA expression of Type III collagen [5]: reduces
